According to patent publication EP3409671B1, “ISOTHIAZOLE DERIVATIVES AS GPR120 AGONISTS FOR THE TREATMENT OF TYPE II DIABETES” (Janssen Pharmaceutica NV, priority 2014, dated 2015):

Molecular target: T1, long form of human GPR120 (Homo sapiens, UniProt Q5NUL3)
T1 construct: host or cells: PathHunter CHO-K1 GPR120 β-Arrestin Cell Line
T1 sequence (Q5NUL3 1-377 isoform Q5NUL3-1): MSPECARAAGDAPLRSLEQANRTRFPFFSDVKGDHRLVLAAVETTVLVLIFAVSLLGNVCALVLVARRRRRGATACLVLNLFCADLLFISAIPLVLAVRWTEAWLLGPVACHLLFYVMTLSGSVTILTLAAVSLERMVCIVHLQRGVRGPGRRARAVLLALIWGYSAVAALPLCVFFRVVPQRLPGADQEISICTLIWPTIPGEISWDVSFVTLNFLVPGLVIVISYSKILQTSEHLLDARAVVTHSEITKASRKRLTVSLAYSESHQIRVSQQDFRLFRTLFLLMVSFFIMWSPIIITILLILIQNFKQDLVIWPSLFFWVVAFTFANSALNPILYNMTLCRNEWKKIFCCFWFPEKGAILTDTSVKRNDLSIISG
Assay: Human GPR120 DiscoveRx PathHunter Beta-Arrestin assay, Procedure β-arrestin A
Assay type: cell-based
Conditions: PathHunter CHO-K1 GPR120 β-Arrestin Cell Line, long form of human GPR120, 3000 cells per well; read-out: hGPR120 β-arrestin A EC50
From the text: The binding of an agonist (medium/long chain fatty acids or small molecule agonists) to the G-protein-coupled receptor GPR120 activates phospholipase C, leading to release of intracellular Ca^+2 through the generation of inositol 1,4,5-trisphosphate (InsP3 or IP3). GPR120 activation can also trigger intracellular signaling via recruitment of Beta-Arrestin. In the present method, agonist-induced activation of the human GPR120 receptor is monitored through the use of PathHunter CHO-K1 GPR120 Beta-Arrestin Cell Line engineered by DiscoveRx, as detailed below. […]
Under these conditions, these fragments can interact and form an active Beta-gal enzyme complex through Enzyme Fragment Complementation (EFC). This active Beta-gal complex can enzymatically hydrolyse the substrate to produce a detectable light signal; therefore, activation as a function of agonist concentration can be expressed as an EC50 value to determine relative compound activities. […]
The plates were read on an EnVision instrument, using Protocol name: Luminescence, Plate type: 384 Costar, Measurement height: 3 mm, Measurement time: 1s, Aperture: 384 Plate aperture. The %activity relative to the positive control was calculated using the following equation: %Activity = (Countcompound −Countvehicle)/(Countpostivite control −Countvehicle) × 100% [formula] […]

| EC50 [nM] | SMILES |
| --- | --- |
| 176 | O=C(O)CCc1ccc(OCc2c(C(F)(F)F)nsc2-c2ccc(Cl)cc2)c(Cl)c1Cl [Cpd 55, 3-(2,3-dichloro-4-[[5-(4-chlorophenyl)-3-(trifluoromethyl)-1,2-thiazol4-yl]methoxy]phenyl) propanoic acid] |
| 141 | O=C(O)CCc1cc(F)c(OCc2c(Cl)nsc2-c2ccc(Cl)cc2)c(F)c1 [Cpd 75, 3-(4-[[3-chloro-5-(4-chlorophenyl)-1,2-thiazol-4-yl]methoxy]-3,5-difluorophenyl)propanoic acid] |
